The assay deals with T1, human P2X2/3 receptor (Homo sapiens, UniProt P56373+Q9UBL9).
T1 construct: expressed in transfected cells; host or cells: CHO-K1
T1 sequence (P56373 1-397): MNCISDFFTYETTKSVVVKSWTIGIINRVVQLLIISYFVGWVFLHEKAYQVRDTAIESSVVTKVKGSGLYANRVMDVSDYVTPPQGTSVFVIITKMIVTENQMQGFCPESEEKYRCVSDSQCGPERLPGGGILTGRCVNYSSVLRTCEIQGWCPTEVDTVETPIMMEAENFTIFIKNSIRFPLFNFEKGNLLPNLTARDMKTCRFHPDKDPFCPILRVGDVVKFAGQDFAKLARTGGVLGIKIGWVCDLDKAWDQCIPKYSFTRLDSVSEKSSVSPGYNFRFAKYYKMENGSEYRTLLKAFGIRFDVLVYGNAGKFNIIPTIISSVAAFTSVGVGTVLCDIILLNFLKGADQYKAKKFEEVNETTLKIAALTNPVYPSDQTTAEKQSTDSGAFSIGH
T1 sequence (Q9UBL9 1-471): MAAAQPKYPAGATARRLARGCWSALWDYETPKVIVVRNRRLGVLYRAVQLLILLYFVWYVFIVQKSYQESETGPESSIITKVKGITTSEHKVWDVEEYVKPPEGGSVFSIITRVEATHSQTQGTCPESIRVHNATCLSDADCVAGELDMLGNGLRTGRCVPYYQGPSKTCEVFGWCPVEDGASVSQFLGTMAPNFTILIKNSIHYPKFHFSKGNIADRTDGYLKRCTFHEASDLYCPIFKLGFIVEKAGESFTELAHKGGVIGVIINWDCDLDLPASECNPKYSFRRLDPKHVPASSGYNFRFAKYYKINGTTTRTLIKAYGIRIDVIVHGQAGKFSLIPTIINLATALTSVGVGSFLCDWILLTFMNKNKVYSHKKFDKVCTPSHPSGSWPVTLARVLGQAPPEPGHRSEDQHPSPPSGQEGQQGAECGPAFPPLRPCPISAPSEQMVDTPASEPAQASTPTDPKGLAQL
The experiment in a line: Calcium fluorescence measurement: human P2X2/3 receptor activity inhibition (CHO-K1 cells, Fluo-8 NoWash, […]). It is filed as cell-based.

As to `CC(C)C1C(=O)N=C2c3ncc(N4CCOCC4)cc3N(Cc3ccc(Cl)cc3)C(=O)N21` (racemic) [Example 22, 6-[(4-Chlorophenyl)methyl]-8-(morpholin-4-yl)-3-(propan-2-yl)imidazo[1,2-c]pyrido[2,3-e]pyrimidine-2,5(3H,6H)-dione], the IC50 (CHO-K1 cells expressing human P2RX2/X3 channel, 10µM α,β-Met-ATP, read-out: h-P2X2/3 IC50) is 18.8 µM. Moreover, the Selectivity (ratio of IC50 of P2X2/3/ P2X3 receptors) is on record as 510.

(Values after patent publication EP4389746A2, “P2X3 RECEPTOR ANTAGONISTS” (Recordati Industria Chimica E Farmaceutica SPA, priority 2022, dated 2024).)
